{
  "source": "patent US20040259732A1",
  "about": "“Treatment of plants and plant propagation materials with an antioxidant to improve plant health and/or yield” (Monsanto Technology, L.L.C., priority 2003, published 2004)",
  "key": {"carrot seeds": {"system": "carrot seeds", "conditions": "seed soak: gibberellic acid 1 and 100 microgram/l, Ambiol 0.1 mg/l, glycinebetaine 100 mg/l; cited from earlier work"}, "carrot seed": {"system": "carrot seed", "conditions": "carrot seed treatment; cited from earlier work"}, "[1]": {"system": "seeds of black spruce and jack pine", "conditions": "seed soak at 0, 0.1, and 10 mg/l; cited from earlier work"}, "[2]": {"system": "Corn plantlets (Hybrid LH176rr1.4(LH224×LH226))", "assay": "Fresh weight accumulation after cold stress, corn plantlets", "type": "in vivo", "conditions": "seed treated with 50-100 g/100 kg; 6 days 18° C./12° C."}, "corn seeds": {"system": "corn seeds", "conditions": "optimum (warm) conditions; any of the treatment levels tested (10-250 g/100 kg seed)", "quoted_text": "Test 1—Ten seeds for each sample to be tested are placed in each of ten Petri dishes with 5 ml of distilled water and incubated at 30° C. day and 20° C. night with a 16 hour day length. Each day the Petri dishes were checked and scored for germination. Percent germination was determined as the average number of seeds which had germinated within the test period minus any abnormal seeds, divided by the total number of original seeds, times 100. A seed was considered germinated when the radical reached a length of 1 cm.\nTest 2—Test 2 is much closer to an industry standard for optimum condition testing. Test seeds are placed on a moist paper towel and then covered with a second moist paper towel. The towel is then rolled into a cylinder and placed upright in a beaker containing water. The beaker is placed in an incubation chamber at 25° C. for 7 days in continuous darkness. After 7 days the number of seeds germinated are counted and converted to a percentage of seeds in the test. This test is used to determine the maximum germination potential of the seed.\nAfter treatment, each seed sample was tested for germination in as described in Test 1, Test 2 and Test 3, as described above."}, "[3]": {"system": "Hybrid \"B\" (cold sensitive) corn", "conditions": "10° C.", "method": "(§1) This test was designed to measure the emergence of plantlets from sprouted seeds under conditions that more closely resemble those found in field conditions.\n(§2) For each sample batch of seed to be tested, 10 seeds were placed on ½″ of soil medium in a test tray and covered with an additional 2″ of soil medium. Three replications were prepared for each sample batch. The soil is moistened regularly and placed in the desired temperature regime. For a cold emergence test, trays are incubated at 10° C. with 16 hours of light. The tray is monitored daily over a 30-day period and a seed is counted as emerged when the spike breaks through the surface of the soil. Percent emergence is calculated as the number of emerged plantlets divided by the total number of seeds that were planted, times 100.\n(§3) Corn hybrids “A” and “B”, as described above were treated with choline chloride at levels of 0, 10, 25 and 50 g/100 kg of seed. Each batch of seed was tested under 10° C. incubation conditions for emergence from a soil medium as described above."}, "[4]": {"system": "Hybrid \"A\" (cold tolerant) corn", "conditions": "10° C.; 25 g/100 kg seed", "method": "as §1, §2, §3"}, "corn seed": {"system": "corn seed", "assay": "Field trials, emergence in cold conditions by seed treatment rate", "type": "in vivo", "conditions": "rates from 25 g/100 Kg to 250 g/100 Kg", "method": "(§4) Samples of seed having each type of treatment shown in Table 3 were planted in a controlled field trial in the upper Midwestern United States. Conservation tillage practices were adhered to and planting was accomplished during the first 10% of the crop that got planted in that area. During the trial, the plant density (number of plants per acre) and the corn yield (bu/acre) were measured."}, "Hybrid \"B\" corn seeds": {"system": "Hybrid \"B\" corn seeds", "assay": "Cold condition germination test (Test 3), Hybrid B corn seeds", "type": "in vivo", "conditions": "10° C.", "method": "(§5) This test was designed to measure the ability of seeds to germinate under adverse condition associated with high moisture and low temperature. Test 3-This test was conducted as described above in Test 1, except that the Petri dishes were incubated at a constant temperature of 10° C. Germination rate was determined as described above in Test 1. The test length continued for 30 days as the seeds are very slow to germinate under these conditions."}, "Hybrid \"A\" corn seeds": {"system": "Hybrid \"A\" corn seeds", "assay": "Cold condition germination test (Test 3), Hybrid A corn seeds", "type": "in vivo", "conditions": "10° C.", "method": "as §5"}, "cotton seeds": {"system": "cotton seeds", "conditions": "treated cotton seeds; cited from earlier work"}, "[5]": {"system": "Soybean plantlets (Hybrid AG3303)", "assay": "Fresh weight accumulation after cold shock, soybean plantlets", "type": "in vivo", "conditions": "seed treated with 10-20 g/100 kg; one week 22° C./13° C.; measured 10 days after return to greenhouse", "method": "Soybean plantlets (Hybrid AG3303, available from Asgrow Seed Co., St. Louis, Mo.) that were grown in a greenhouse maintained at day/night temperatures of 30° C. day and 25° C. night and with a 12 hour light period. The seed had been treated with different levels of glycinebetaine and were grown in optimum greenhouse conditions until they reached the first trifoliate stage of development. The plants were then moved from the greenhouse and subjected to 22° C./13° C. day/night temperatures for one week in a Conviron growth chamber. After one week the plants were returned to the greenhouse for “recovery” in optimal conditions. The fresh weight accumulation of the plantlets was then measured after 10 days following their return to the greenhouse."}, "[6]": {"system": "Corn seeds (Hybrid LH176rr1.4(LH224×LH226))", "type": "in vivo", "conditions": "field trial", "method": "Corn seeds (Hybrid LH176rr1.4(LH224×LH226, available from Holden's Foundation Seeds, Inc., Williamsburg, Iowa) were treated with an antioxidant, alone or in combination with a pesticide (silthiofam, available from Monsanto Co., St. Louis, Mo., under the trade name […]®, 11.83% w/w silthiofam) according to the rates shown in Table 3.\nas §4"}},
  "data": [
    {"smiles": "Cc1nc2ccc(O)c(CN(C)C)c2[nH]1", "note": "[Ambiol, 2-methyl-4-[dimethylaminomethyl]-5-hydroxybenzimidazole]", "values": [
      {"measurement": "emergence of seedlings", "setting": "carrot seeds", "value": "accelerated emergence of seedlings"},
      {"measurement": "germination in carrots", "setting": "carrot seed", "value": "hastened germination"},
      {"measurement": "membrane leakage", "setting": "[1]", "value": "reduced membrane leakage"}
    ]},
    {"smiles": "C[N+](C)(C)CCO.[Cl-]", "note": "[choline chloride]", "values": [
      {"measurement": "fresh weight accumulation after cold shock vs untreated seed", "setting": "[2]", "value": "tendency for greater fresh weight accumulation"},
      {"measurement": "effect on germination under normal growing conditions", "setting": "corn seeds", "value": "no negative effects on germination"},
      {"measurement": "days after seeding at which 50% germination was reached", "setting": "[3]; 10 g/100 kg seed", "value": 29, "unit": "days"},
      {"measurement": "increase in germination time over untreated control", "setting": "[3]; 10 g/100 kg seed, study end 31 days", "value": "minimum of two days"},
      {"measurement": "first evidence of emergence", "setting": "[3]; 10 g/100 kg treated seed", "value": 21, "unit": "days"},
      {"measurement": "50% emergence earlier than untreated control", "setting": "[4]", "value": "three days before the untreated control"},
      {"measurement": "day on which 50% emergence was reached", "setting": "[4]", "value": 22, "unit": "days"},
      {"measurement": "emergence as a function of rate", "setting": "corn seed", "value": "emergence is found to increase with the increase of the rate"},
      {"measurement": "50% germination earlier than untreated control", "setting": "Hybrid \"B\" corn seeds; 50 g/100 kg", "value": "three days earlier"},
      {"measurement": "50% germination earlier than untreated control", "setting": "Hybrid \"B\" corn seeds; 100 g/100 kg", "value": "three days earlier"},
      {"measurement": "50% germination earlier than untreated control", "setting": "Hybrid \"A\" corn seeds; 100 g/100 kg (best rate)", "value": "two days earlier"},
      {"measurement": "effect on germination rate", "setting": "Hybrid \"A\" corn seeds; lower treatment rates, FIG. 1A / FIG. 2A", "value": "substantially the same effect"}
    ]},
    {"smiles": "C=C1C[C@]23C[C@@]1(O)CC[C@H]2[C@@]12C=C[C@H](O)[C@@](C)(C(=O)O1)[C@H]2[C@@H]3C(=O)O", "note": "[gibberellic acid]", "values": [
      {"measurement": "emergence of seedlings", "setting": "carrot seeds", "value": "accelerated emergence of seedlings"}
    ]},
    {"smiles": "C[N+](C)(C)CC(=O)[O-]", "note": "[glycinebetaine]", "values": [
      {"measurement": "emergence of seedlings", "setting": "carrot seeds", "value": "accelerated emergence of seedlings"},
      {"measurement": "drought tolerance", "setting": "cotton seeds", "value": "improvement in drought tolerance"},
      {"measurement": "fresh weight accumulation following the cold shock", "setting": "[5]", "value": "greater fresh weight accumulation"},
      {"measurement": "50% germination earlier than untreated control", "setting": "Hybrid \"B\" corn seeds; 50 g/100 kg", "value": "three-day earlier germination"},
      {"measurement": "50% germination earlier than untreated control", "setting": "Hybrid \"B\" corn seeds; 100 g/100 kg", "value": "three-day earlier germination"},
      {"measurement": "germination in carrots", "setting": "carrot seed", "value": "hastened germination"}
    ]},
    {"smiles": "C=CCNC(=O)c1c([Si](C)(C)C)sc(C)c1C", "note": "[silthiofam, 4,5-dimethyl-N-(2-propenyl)-2-(trimethylsilyl)-3-thiophenecarboxamide]", "values": [
      {"measurement": "corn yield improvement over untreated control", "setting": "[6]; rates of Table 3 (silthiofam 25, choline chloride 250, glycinebetaine 50, BHA/BHT 10 g/100 kg seed), FIGS. 7B and 7C", "value": "~20", "unit": "%"},
      {"measurement": "corn plant density (number of plants per acre)", "setting": "[6]; rates of Table 3, FIG. 7A", "value": "significant improvement in corn plant density"}
    ]}
  ]
}
